This is an account of results in patent US20080139534A1, “Bisbenzamidines and bisbenzamidoximes for the treatment of human African trypanosomiasis” (XAVIER UNIVERSITY OF LOUISIANA, priority 2006, published 2008).

Each structure is given as a SMILES string. Where two headings read alike, the source gives them in different places. Some results are limits rather than exact numbers.

The test system of data set [1] is T. b. brucei Lab 110 EATRO. Description: In vitro trypanocidal activity, bloodforms in HMI-18 medium, Coulter counts. The format is cell-based, Trypanosoma brucei brucei. The following applies: read-out: Lab 100 EATRO IC50.
Experimental: (§1) The compounds were tested against trypanosome isolates grown as blood forms in HMI-18 medium containing 20% horse serum in 24 well microplates at 37° C. in 5% CO2. Wells were inoculated with 1×10^5 trypanosomes. […] One-half the volume was replaced daily. Cell counts were made daily with a Coulter Counter, Model Z1 (Beckman Coulter, Miami, Fla., USA). Cells were diluted with Isoton I buffer (Beckman Coulter) and the aperture was standardized at 5.14 μm. Background checks were performed daily on 1:10 dilutions of medium. Counts, normalization, and coincident counts were accounted for by the standardized Coulter analysis program. Occasionally, hemocytometer counts were performed as a check on the validity of the Coulter program. IC50 values were determined after 48 h from semi-log plots and the values are the result of duplicate determinations. Initially a broad concentration curve was used and then a close concentration curve from which IC50 values were determined. Assays were done in duplicate and each point was the average of the two. Control cells grew to 5×10^6/ml.
(§2) Coulter counts were made daily and IC50 values determined after 48 hours exposure.
Data set [2] has as its system calf thymus DNA. In words: Thermal denaturation study, DNA binding affinity (ΔTm). The following applies: 1:5 compound to base pair ratio.
Experimental: (§3) The binding affinity was measured by determining the change in the midpoint (Tm) of the thermal denaturation curves of calf thymus DNA as well as poly(dA-dT) at a 1:5 compound to base pair ratio.
Data set [3] deals with poly(dA-dT). Described as above. Conditions: 1:5 compound to base pair ratio.
Experimental: as §3
For data set [4], the system named is T. b. rhodesiense KETRI 243. In words: In vitro trypanocidal activity, bloodforms in HMI-18 medium, Coulter counts. The format is cell-based, Trypanosoma brucei rhodesiense. Conditions: 48 h exposure.
Experimental: as §1, §2
Data set [5] has as its system T. b. brucei Lab 110 EATRO. Description: In vivo efficacy in infected mice. The following applies: mice. More on the design: species or system Trypanosoma brucei brucei.
Experimental: Female Swiss-Webster mice (weight, 20 g) were infected (intraperitoneally) with 2.5×10^5 trypanosomes from rat blood, and the infection was allowed to develop for 24 h before drug treatment was begun. Groups of three mice each were injected (intraperitoneally) with each drug concentration. All of the experiments included a group of untreated controls. […] Parasitemia of animals dying of infection averaged 0.5-1.0×10^9/mL of blood. These infections are very predictable and daily counts were not done because of the labor involved. […] Animals were monitored weekly for parasites in tail vein blood smears. Mice were considered cured if they survived more than 30 days after the death of the last control with no parasites in tail vein blood smears. MSD (mean survival in days) was also recorded for each group. It is the average time of survival of the animals in the group, exclusive of cured animals.
Mice were infected with 250,000 parasites and dosing commenced 24 h. post infection. Mice were separated into groups of three and given single i.p doses for 3 days unless otherwise noted. Infected untreated controls were used for each experiment. Mice were considered cured if surviving more than 30 days beyond death of controls without parasites in tail vein blood smears. MSD, mean survival in days, exclusive of cured animals.
Data set [6] deals with T. b. rhodesiense KETRI 2002. In words: In vivo efficacy in infected mice, clinical isolate. Set-up: species or system Trypanosoma brucei rhodesiense.
Experimental: (§4) Female Swiss-Webster mice (weight, 20 g) were infected (intraperitoneally) with 2.5×10^5 trypanosomes from rat blood, and the infection was allowed to develop for 24 h before drug treatment was begun. Groups of three mice each were injected (intraperitoneally) with each drug concentration. All of the experiments included a group of untreated controls. […] Animals were monitored weekly for parasites in tail vein blood smears. Mice were considered cured if they survived more than 30 days after the death of the last control with no parasites in tail vein blood smears. MSD (mean survival in days) was also recorded for each group. It is the average time of survival of the animals in the group, exclusive of cured animals.
(§5) Mice were infected on day 1 with 2.5×10^5 trypanosomes and the infections allowed to progress 24 h. prior to dosing. Animals were dosed 1×/day i.p for 3 days. Cured animals survived >30 days beyond the death of untreated, infected controls. MSD=mean survival in days exclusive of cured animals. Dose as mg/kg/day.
The test system of data set [7] is T. b. rhodesiense KETRI 1992. Described as above. Set-up: species or system Trypanosoma brucei rhodesiense.
Experimental: as §4, §5
Data set [8] concerns T. b. rhodesiense KETRI 2538. Described as above. More on the design: species or system Trypanosoma brucei rhodesiense.
Experimental: as §4, §5
The mark [9] stands for this setting: KETRI 2002, 1 mg/kg/day i.p. for 3 days.
Setting [10] is: KETRI 2002, 5 mg/kg/day i.p. for 3 days.
Where [11] appears, read: KETRI 2002, 10 mg/kg/day i.p. for 3 days.
Where [12] appears, read: KETRI 2002, 15 mg/kg/day i.p. for 3 days.
[13] abbreviates: KETRI 1992, 1 mg/kg/day i.p. for 3 days.
Where [14] appears, read: KETRI 1992, 5 mg/kg/day i.p. for 3 days.
[15] abbreviates: KETRI 1992, 10 mg/kg/day i.p. for 3 days.
Setting [16] is: KETRI 1992, 25 mg/kg/day i.p. for 3 days.
Setting [17] is: 25 mg/kg i.p., single dose (1x).
Setting [18] is: KETRI 2002, 25 mg/kg/day i.p. for 3 days.
The mark [19] stands for this setting: KETRI 1992, 15 mg/kg/day i.p. for 3 days.
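For DNA Binding Δ Tm Calf thymus in this document: shift in midpoint melting temperature of calf thymus DNA thermal denaturation curves caused by compound binding, values averaged over at least two determinations.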
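For DNA Binding Δ Tm Poly (dA-dT) in this document: shift in the midpoint temperature of the thermal melting curve of poly(dA-dT), each value the mean of two or more independent determinations.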

Turning to `CCCCCC(=O)ONC(=N)c1ccc(NC(=O)CCCC(=O)Nc2ccc(C(=N)NOC(=O)CCCCC)cc2)cc1` [TH742, N,N′-Bis[4-(N-Pentylcarbonyloxyamidino)phenyl]pentanediamide], the melting point (as a rule, the temperature of the solid-liquid transition) fell in the range of 182 to 184 °C.

As for `CCCCCc1nc(-c2ccc(NC(=O)CCCC(=O)Nc3ccc(-c4noc(CCCCC)n4)cc3)cc2)no1` [TH743, N,N′-Bis[4-(5-Pentyl-1,2,4-oxadiazol-3yl)phenyl]pentanediamide], the melting point lay within 171 to 173 °C.

On to `NNC(=O)c1ccc(N2CCN(c3ccc(C(=O)NN)cc3)CC2)cc1` [compound 0117, 4,4′-(1,4-Piperazinediyl)bisbenzenecarboxhydrazide], for which the melting point was over 300 °C. Further, the IC50 (as a rule, the concentration at which inhibition is half-maximal) in data set [1] (Trypanosoma brucei, 48 h) was found to be 240 nM. The “DNA Binding Δ Tm Calf thymus” value in data set [2] is 0.1 °C. Besides, in [3], the “DNA Binding Δ Tm Poly (dA-dT)” value turned out to be 0.0 °C.

Take `N=C(N)c1ccc(NC(=O)CCCCCC(=O)Nc2ccc(C(=N)N)cc2)cc1` [compound 0706]: the IC50 in [1] (48 h exposure, bloodforms) was 1.62 nM; in data set [4] it was 2.05 nM. The MSD in data set [5] (1 mg/kg/day i.p. for 3 days), in data set [5] (5 mg/kg/day i.p. for 3 days), in data set [5] (10 mg/kg/day i.p. for 3 days), in data set [5] (15 mg/kg/day i.p. for 3 days), in data set [6] (setting [9]) and in data set [6] (setting [10]) was over 30 days in each case. In addition, the MSD in data set [6] (setting [11]) is given as over 30 days; in [6] (setting [12]), over 30 days; in data set [7] (setting [13]), 14 days; in data set [7] (setting [14]), 18.3 days; in data set [7] (setting [15]) it was 18.6 days; in data set [7] (setting [16]), 19.3 days. Moreover, the “#Cured/Total” value in [7] (setting [13]), in data set [7] (setting [14]), in [7] (setting [15]) and in [7] (setting [16]) was 0/3 throughout.

`N=C(N)c1ccc(NC(=O)CCCCC(=O)Nc2ccc(C(=N)N)cc2)cc1` [compound 0702]: the IC50 stood at 2.8 nM in data set [1] (Trypanosoma brucei, 48 h exposure, bloodforms) and 2.45 nM in data set [4] (Trypanosoma brucei, RHODESIENSE). Also, the “DNA Binding Δ Tm Calf thymus” value in data set [2] came to 8.7 °C. Moreover, the “DNA Binding Δ Tm Poly (dA-dT)” value in data set [3] amounted to 14.4 °C. For the same molecule, the “# Cured/#Treated (%)” value in data set [5] (1 mg/kg/day i.p. for 3 days) and in data set [5] (setting [17]) was 0/3 in each case. Besides, the MSD is 6.7 days in data set [5] (1 mg/kg/day i.p. for 3 days); over 30 days in data set [5] (5 mg/kg/day i.p. for 3 days); over 30 days in data set [5] (10 mg/kg/day i.p. for 3 days); over 30 days in data set [5] (15 mg/kg/day i.p. for 3 days); 22 days in data set [5] (setting [17]); over 30 days in [5] (25 mg/kg/day i.p., 2 doses (2x)). The MSD was over 30 days in data set [6] (setting [11]); over 30 days in data set [6] (setting [12]); over 30 days in data set [6] (setting [18]); over 30 days in data set [8] (KETRI 2538, 5 mg/kg/day i.p. for 3 days); over 30 days in [8] (KETRI 2538, 10 mg/kg/day i.p. for 3 days); over 30 days in [8] (KETRI 2538, 15 mg/kg/day i.p. for 3 days). The values for the MSD in data set [7] (setting [14]), in data set [7] (setting [15]) and in [7] (setting [19]) were 16.5 days, 17.5 days and 22 days, respectively. Moreover, the “#Cured/Total” value in data set [7] (setting [14]), in data set [7] (setting [15]) and in data set [7] (setting [19]) was 0/3 each time.

As for `Cc1nc(-c2ccc(NC(=O)CCCC(=O)Nc3ccc(-c4noc(C)n4)cc3)cc2)no1` [TH728, N,N′-Bis[4-(5-Methyl-1,2,4-oxadiazol-3yl)phenyl]pentanediamide], the melting point lay in the range of 235 to 237 °C.

Molecule `N/C(=N\OC(=O)c1ccccc1)c1ccc(NC(=O)CCCC(=O)Nc2ccc(/C(N)=N/OC(=O)c3ccccc3)cc2)cc1` [TH746, N,N′-Bis[4-(N-Phenylcarbonyloxyamidino)phenyl]pentanediamide] showed a melting point of 253 to 255 °C.

With `N=C(N)c1ccc(NC(=O)CCCCCCC(=O)Nc2ccc(C(=N)N)cc2)cc1` [compound 0705], the IC50 in data set [1] (48 h exposure, bloodforms) came to 2.8 nM; in data set [4] it was 1.45 nM. Moreover, the MSD in data set [5] (1 mg/kg/day i.p. for 3 days) is 10 days; in [5] (5 mg/kg/day i.p. for 3 days), over 30 days; in [5] (10 mg/kg/day i.p. for 3 days), over 30 days; in [5] (25 mg/kg/day i.p. for 3 days), over 30 days; in [6] (setting [9]) it was over 30 days; in data set [6] (setting [10]), over 30 days. The MSD in [6] (setting [11]) was over 30 days; in data set [6] (setting [18]), over 30 days; in data set [7] (setting [13]) it was 15.3 days; in data set [7] (setting [14]), 22.6 days; in [7] (setting [15]) it was 29.6 days. Also, the “#Cured/Total” value in data set [7] (setting [13]), in data set [7] (setting [14]) and in data set [7] (setting [15]) was 0/3 throughout.

The molecule `C=CCCc1nc(-c2ccc(NC(=O)CCCC(=O)Nc3ccc(-c4noc(CCC=C)n4)cc3)cc2)no1` [TH745, N,N′-Bis[4-(5-3,4-Butene-1,2,4-oxadiazol-3yl)phenyl]pentanediamide] registered a melting point of 168 to 170 °C.

`O=C(CCCC(=O)Nc1ccc(-c2noc(-c3ccccc3)n2)cc1)Nc1ccc(-c2noc(-c3ccccc3)n2)cc1` [TH747, N,N′-Bis[4-(5-Phenyl-1,2,4-oxadiazol-3yl)phenyl]pentanediamide]: the melting point lay in the range of 255 to 257 °C.

With `CC(=O)O/N=C(\N)c1ccc(NC(=O)CCCC(=O)Nc2ccc(/C(N)=N/OC(C)=O)cc2)cc1` [TH724, N,N′-bis[4-(N-acetoxyamidino)phenyl]pentanediamide], the melting point lay within 225 to 228 °C.
